Experimental data from patent US6706289B2, “Methods and compositions for enhanced delivery of bioactive molecules” (priority 2000, dated 2004).
Where two headings read alike, the source gives them in different places.

Experiments:
[1] = Mean particle size of microparticles estimated from SEM; format: physicochemical
[2] = format: physicochemical
Method: (§1) Core loading measurement of the microspheres was done by dissolving 10 mg of microspheres in 50% acetonitrile followed by centrifugation to pellet the insoluble polymer. Aliquots were analyzed by RP-HPLC and compared to representative standards prepared in 50% acetonitrile. […] The suspensions were vortexed and incubated at 37° C. After 1 hour, aliquots were removed, filtered and analyzed for the amount released by RP-HPLC.

normal rats = experiment: Hypoglycemic effect: blood glucose levels after subcutaneous administration; format: in vivo
Method: PEG-Insulin PLGA microspheres and an equivalent dose of free insulin were administered subcutaneously to normal rats. Blood was drawn periodically and anticoagulated. Blood glucose levels were measured by standard tests.

[3] = Initial release at 1 h, in vitro dissolution of microparticles; format: physicochemical; conditions: Monophase microparticles; PBS (50 mM, pH 7.2), 0.02% Tween 20, 25% EtOH, 37° C.
Method: as §1

[4] = Double-emulsion (w1/o/w2) PLGA microparticles

| Compound | PS—Mean Particle Size (estimated from SEM) [1, 4] | PS—Mean Particle Size (estimated from SEM) ([1]; Monophase PLGA microparticles) | CL—Coreload (wt % of active in microparticle as isolated) [2, 4] [%] | CL—Coreload (wt % of active in microparticle as isolated) ([2]; Monophase PLGA microparticles) [%] | % BGL (glucose normalized to a percentage of basal levels) (normal rats; Time 0 hr) [%] | % BGL (glucose normalized to a percentage of basal levels) (normal rats; Time 1 hr) [%] | % BGL (glucose normalized to a percentage of basal levels) (normal rats; Time 2 hr) [%] | % BGL (glucose normalized to a percentage of basal levels) (normal rats; Time 4 hr) [%] | % BGL (glucose normalized to a percentage of basal levels) (normal rats; Time 6 hr) [%] | % BGL (glucose normalized to a percentage of basal levels) (normal rats; Time 8 hr) [%] | % BGL (glucose normalized to a percentage of basal levels) (normal rats; Time 12 hr) [%] | IR—Initial Release at 1 h from in vitro dissolution [3] [%] | EE—Encapsulation Efficiency (% of active encapsulated in process) [2, 4] [%] | EE—Encapsulation Efficiency (% of active encapsulated in process) ([2]; Monophase PLGA microparticles) [%] | size range of resulting microspheres ([1]; PLGA microspheres (w/o/w), collected on 25 micron sieve) |
| --- | --- | --- | --- | --- | --- | --- | --- | --- | --- | --- | --- | --- | --- | --- | --- |
| Insulin: recombinant human insulin; PLGA microparticles of Examples 14 and 16 | 100-350 μm | 30-100 μm | 0.23 | 0.6 |  |  |  |  |  |  |  |  |  |  |  |
| PEG-Insulin: Human insulin covalently modified with polyethylene glycol, mPEG(5000)-SPA; PLGA microparticles of Examples 15 and 17 | 50-250 μm | 50-100 μm |  |  | 100 | 111.1 | 86.5 | 97 | 98.5 | 82 | 88.8 |  |  |  |  |
| C[C@@H](NC(=O)[C@@H](N)Cc1ccc(O)cc1)C(=O)NCC(=O)N[C@@H](Cc1ccccc1)C(=O)NNC(=O)[C@H](Cc1ccccc1)NC(=O)CNC(=O)[C@@H](C)NC(=O)[C@@H](N)Cc1ccc(O)cc1 [Biphalin] | 50-250 μm | 20-100 μm | 0.24 | 0.36 |  |  |  |  |  |  |  | 49.4 | 14.28 | 3.64 |  |
| pegylated GM-CSF: GM-CSF conjugated to tresyl-monomethoxy-polyethylene glycol (MW=5000 daltons); paper example |  |  |  |  |  |  |  |  |  |  |  |  |  |  | 25-200 μm |
